This is an account of results in patent US10919899B2, “Imidazopyrazine compounds, preparation methods and uses thereof” (DONGGUAN ZHENXING-BEITE MEDICINE TECHNOLOGY CO., LTD., priority 2017, dated 2021).

Some results are limits rather than exact numbers.

Data set [1] concerns Diffuse large B cell lymphoma cell strain TMD-8. Put plainly: Tumor cell proliferation inhibition assay (CellTiter-Glo), TMD-8. The conditions noted are these: Homo sapiens, TMD8; 72 hours, 10% fetal calf serum; read-out: TMD-8 anti-proliferative IC50 level. Format: cell-based. The procedure:
(§1) Cell viability was evaluated by measuring a content of triphosadenine (ATP) by using CellTiter-Glo luminescent cell viability assay kit method (Promega, # G7572, Madison, Wis.). Diffuse large B cell lymphoma cell strain TMD-8 and HCC827 NSCL cell strains are purchased from Shanghai Fudan IBS Cell Center and American Type Culture Collection (ATCC). After the cells were digested from a cell culture dish by pancreatin and re-suspended by DPBS culture medium, a Scepter automatic cell counter (Millipore, # PHCC00000) was used for counting to measure a cell density. The cells were diluted to be a solution containing 44,000 cells per milliliter. The cell solution with the adjusted density was added into a cell assay plate with 90 μl per well. The well plate was placed to an incubator with 5% CO2 at 37° C. to be incubated for 24 hours and then added with the compound to be tested with different concentrations. The cells and the compound were together incubated for 72 hours in the presence of 10% fetal calf serum. The content of ATP was measured by using CellTiter-Glo® Luminescent Cell Viability Assay kit (referring to manufacturer's instruction) to evaluate the inhibition to the cell growth. Briefly speaking, each well was added with 30 μl of CellTiter-Glo® reagent, the plate was shaken for 10 minutes to induce the cells to be lysed, and fluorescence signal was detected and recorded by fluorescencelchemiluminescence analyzer Fluoroskan Ascent FL (Thermo Scientific Fluoroskan Ascent FL). The maximal signal value was obtained from cells processed by dimethyl sulfoxide (DMSO) for 72 or 120 hours. The minimal signal value obtained from separate culture medium (wherein the number of cells was zero) was defined as 0. Inhibition ratio %=(maximal signal value-compound signal value)/(maximal signal value−minimal signal value)×100%. The data was processed by using GraphPad Prism V5.0 (GraphPad Software San Diego, Calif.) software. IC50 value was fitted and calculated via S-shaped dose-response curve.

In data set [2] the test system is HCC827 NSCLC cell. Put plainly: Tumor cell proliferation inhibition assay (CellTiter-Glo), HCC827. Format: cell-based. The note with it: Homo sapiens, 72 hours, 10% fetal calf serum, read-out: HCC827 anti-proliferative IC50 level. The procedure: as §1
A general note: Cellular ATP, detected with luciferase, serves as a proxy for viable cell number.

Data set [3] in a line: Pharmacokinetic (PK) assay in rats. The data set is classed as in vivo, rat. The note with it: male SD rat, 20 mg/kg oral. The procedure:
A male SD rat with 250-300 g of weight was fasted overnight before the assay. The compound to be tested was dissolved in 30% sulfobutyl ether-β-cyclodextrin (SBE-β-CD) and intragastrically administrated to the rat by 20 mg/kg of dosages. Take blood at 15th minute, 30th minute, and 1st, 2nd, 3rd, 4th, 6th, 8th, and 24th hours after the administratation, and about 0.3 mL of blood was taken at each time point. The blood samples were placed into centrifuge tubes containing K2-EDTA (dipotassium ethylene diamine tetraacetate) and plasma was taken via centrifugal treatment (2,000 g, 10 minutes, 4° C.) and stored in a −80° C. of ultra low temperature refrigerator. 50 μL of plasma sample was mixed with 50 μL of internal standard (IS) and extracted with ethyl acetate. After vacuum dried, the residue was re-dissolved in acetonitrile The sample was filtered and injected into LC-MS/MS to be analyzed.

In data set [4] the target is Txk (h) (Homo sapiens (Human), UniProt P42681). Description: Txk activity inhibition assay (radioactive protein kinase method, Eurofins). The data set is classed as biochemical. The note with it: Km ATP, radiometric. The method, then:
The inhibitory activities of the compound to Tec, Txk, and ITK of human were performed by Eurofins Pharma Discovery Services UK Limited (UK) of the United Kingdom. In the case of Km ATP, the radioactive protein kinase method was adopted by the test. The kinase was diluted with buffer solution (20 mM MOPS, 1 mM EDTA, 0.01% Brij-35, 5% Glycerol, 0.1% […], 1 mg/mL BSA) before the reaction. The compound was dissolved in 100% DMSO and was of 50-fold final reaction concentration.
TxK reaction solution contained 8 mM MOPS pH 7.0, 0.2 mM EDTA, 250 μM […], 10 mM magnesium acetate, and [γ-^33P]-ATP (about 500 cpm/pmol), 200 μM ATP-Mg was added, after mixing, the reaction was started, the incubation was performed for 40 minutes at room temperature, and 3% phosphoric acid solution was added to terminate the reaction, 10 μl (reaction solution) was placed on P30 filtration membrane, washed with 75 mM phosphoric acid for 5 minutes, and dried with methanol for one time, and then scintillation counting was performed.

Chain of Txk (h) (P42681 whole entry): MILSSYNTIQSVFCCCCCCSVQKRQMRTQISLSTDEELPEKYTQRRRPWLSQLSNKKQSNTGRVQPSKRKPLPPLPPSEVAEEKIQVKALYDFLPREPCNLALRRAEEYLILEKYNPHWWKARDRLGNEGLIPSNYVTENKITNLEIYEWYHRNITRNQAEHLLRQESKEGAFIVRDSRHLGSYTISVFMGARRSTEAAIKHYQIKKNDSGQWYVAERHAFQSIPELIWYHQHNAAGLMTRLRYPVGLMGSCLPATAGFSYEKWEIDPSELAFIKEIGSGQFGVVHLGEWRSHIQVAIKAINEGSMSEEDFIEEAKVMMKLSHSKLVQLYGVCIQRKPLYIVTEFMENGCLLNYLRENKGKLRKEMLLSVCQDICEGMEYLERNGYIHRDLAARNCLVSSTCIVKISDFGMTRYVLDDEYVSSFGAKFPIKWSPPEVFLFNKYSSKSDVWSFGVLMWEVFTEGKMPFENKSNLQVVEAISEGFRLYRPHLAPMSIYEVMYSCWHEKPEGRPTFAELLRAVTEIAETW

For orientation: IC50 means the concentration that gives 50% inhibition. What is called AUC(0-inf) is total exposure, with the tail of the curve extrapolated. High values mean more exposure, low ones less exposure. As a reminder, the Cmax is the highest concentration seen after dosing. The term half-life denotes the time in which the quantity being followed falls by half. Low values mean rapid decline, high ones slow decline. Turning to `CC#CC(=O)N1CCC[C@H]1c1nc(-c2ccc(C(=O)Nc3ccccn3)cc2)c2c(N)nccn12` [ACP-196, Acalabrutinib, reference compound], the IC50 in data set [1] was at most 0.1 µM. Besides, in data set [2], the IC50 is above 10 µM. In data set [3], this molecule had a t1/2 of 7.9 h. In data set [3] (plasma), this molecule gave an AUC(0-inf) of 1400 ng·h/mL, a Cmax of 668 ng/mL and a half-life of 7.9 h. The AUC(0-t) in data set [3] (plasma, read-out: AUC0-24) came to 1300 ng·h/mL. Also, the IC50 in data set [4] was 5 µM.
